Patent US12077503B2, “Substituted cyclic amides and their use as herbicides” (FMC CORPORATION, priority 2015, dated 2024)

Tests used:
Type in all cases: in vivo
[1] = tested on: barnyardgrass (Echinochloa crus-galli); test: Test G Pre-Emergence Protocol; details: Echinochloa crus-galli, pre-emergence, 312 h, evaluated after 13 days
In short: (§1)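 Herbicidal effect was rated 13 days post-application on a scale where 100 equals total damage. Spraying took place the day after sowing, using 15.625, 62.5 or 250 g/ha of compound in a 50:50 acetone/water solution with 0.5% Tween 20.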

corn (Zea mays) [2] = test: Test G Pre-Emergence Protocol; details: Zea mays, pre-emergence, 312 h, evaluated after 13 days
In short: as §1

[3] = tested on: giant foxtail (Setaria faberi); test: Test G Pre-Emergence Protocol; details: Setaria faberi, pre-emergence, 312 h, evaluated after 13 days
In short: as §1

[4] = tested on: ivy-leaved morning glory (Ipomoea hederacea); test: Test G Pre-Emergence Protocol; details: Ipomoea, pre-emergence, 312 h, evaluated after 13 days
In short: as §1

[5] = tested on: redroot pigweed (Amaranthus retroflexus); test: Test G Pre-Emergence Protocol; details: Amaranthus retroflexus, pre-emergence, 312 h, evaluated after 13 days
In short: as §1

[6] = tested on: velvetleaf (Abutilon theophrasti); test: Test G Pre-Emergence Protocol; details: Abutilon theophrasti, pre-emergence, 312 h, evaluated after 13 days
In short: as §1

[7] = tested on: barnyardgrass (Echinochloa crus-galli); test: Test G Post-Emergence Protocol; details: Echinochloa crus-galli, post-emergence, 312 h, read-out: Barnyardgrass damage rating
In short: (§2)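 Pot-grown seedlings, 8 days old, raised in a glasshouse at 24/16 °C day/night with 14 h light and 65% humidity, were sprayed post-emergence with test compound in acetone/water (50:50) plus 0.5% Tween 20 at 15.625, 62.5 or 250 g/ha. Damage was scored visually 13 days later on a 0–100 scale (100 = total damage).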

corn (Zea mays) [8] = test: Test G Post-Emergence Protocol; details: Zea mays, post-emergence, 312 h, read-out: Corn damage rating
In short: as §2

[9] = tested on: giant foxtail (Setaria faberi); test: Test G Post-Emergence Protocol; details: Setaria faberi, post-emergence, 312 h, read-out: Foxtail, Giant damage rating
In short: as §2

[10] = tested on: ivy-leaved morning glory (Ipomoea hederacea); test: Test G Post-Emergence Protocol; details: Ipomoea, post-emergence, 312 h, read-out: Morningglory, Ivy-leaved damage rating
In short: as §2

[11] = tested on: redroot pigweed (Amaranthus retroflexus); test: Test G Post-Emergence Protocol; details: Amaranthus retroflexus, post-emergence, 312 h, read-out: Pigweed, Redroot damage rating
In short: as §2

[12] = tested on: velvetleaf (Abutilon theophrasti); test: Test G Post-Emergence Protocol; details: Abutilon theophrasti, post-emergence, 312 h, read-out: Velvetleaf damage rating
In short: as §2

[13] = 15.625 g ai/ha, evaluated after 13 days (100=total damage to plant; 0=no damage to plant)
[14] = 62.5 g ai/ha, evaluated after 13 days, 100=total damage to plant, 0=no damage to plant
[15] = 250 g ai/ha, evaluated after 13 days, 100=total damage to plant, 0=no damage to plant

Cc1c(F)ccc(NC(=O)[C@@H]2C(=O)N(C)C[C@H]2c2ccc(C(F)(F)F)cc2)c1Cl (racemic) [Compound 1651]
pest or weed control at 15.625 g/ha ([1]; 15.625 g ai/ha, read-out: Barnyardgrass damage rating (100=total damage to plant; 0=no damage to plant)): 0%
pest or weed control at 62.5 g/ha ([1]; 62.5 g ai/ha, 100=total damage to plant, 0=no damage to plant, read-out: Barnyardgrass damage rating): 0%
pest or weed control at 250 g/ha ([1]; 250 g ai/ha, read-out: Barnyardgrass damage rating (100=total damage to plant; 0=no damage to plant)): 20%
plant injury at 15.625 g/ha (corn (Zea mays) [2]; 15.625 g ai/ha, read-out: Corn damage rating (100=total damage to plant; 0=no damage to plant)): 0%
plant injury at 62.5 g/ha (corn (Zea mays) [2]; 62.5 g ai/ha, 100=total damage to plant, 0=no damage to plant, read-out: Corn damage rating): 0%
plant injury at 250 g/ha (corn (Zea mays) [2]; 250 g ai/ha, read-out: Corn damage rating (100=total damage to plant; 0=no damage to plant)): 0%
pest or weed control at 15.625 g/ha ([3]; 15.625 g ai/ha, read-out: Foxtail, Giant damage rating (100=total damage to plant; 0=no damage to plant)): 0%
pest or weed control at 62.5 g/ha ([3]; 62.5 g ai/ha, 100=total damage to plant, 0=no damage to plant, read-out: Foxtail, Giant damage rating): 20%
pest or weed control at 250 g/ha ([3]; 250 g ai/ha, read-out: Foxtail, Giant damage rating (100=total damage to plant; 0=no damage to plant)): 80%
pest or weed control at 15.625 g/ha ([4]; 15.625 g ai/ha, read-out: Morningglory, Ivy-leaved damage rating (100=total damage to plant; 0=no damage to plant)): 0%
pest or weed control at 62.5 g/ha ([4]; 62.5 g ai/ha, 100=total damage to plant, 0=no damage to plant, read-out: Morningglory, Ivy-leaved damage rating): 0%
pest or weed control at 250 g/ha ([4]; 250 g ai/ha, read-out: Morningglory, Ivy-leaved damage rating (100=total damage to plant; 0=no damage to plant)): 0%
pest or weed control at 15.625 g/ha ([5]; 15.625 g ai/ha, read-out: Pigweed, Redroot damage rating (100=total damage to plant; 0=no damage to plant)): 0%
pest or weed control at 62.5 g/ha ([5]; 62.5 g ai/ha, 100=total damage to plant, 0=no damage to plant, read-out: Pigweed, Redroot damage rating): 10%
pest or weed control at 250 g/ha ([5]; 250 g ai/ha, read-out: Pigweed, Redroot damage rating (100=total damage to plant; 0=no damage to plant)): 20%
pest or weed control at 15.625 g/ha ([6]; 15.625 g ai/ha, read-out: Velvetleaf damage rating (100=total damage to plant; 0=no damage to plant)): 0%
pest or weed control at 62.5 g/ha ([6]; 62.5 g ai/ha, 100=total damage to plant, 0=no damage to plant, read-out: Velvetleaf damage rating): 0%
pest or weed control at 250 g/ha ([6]; 250 g ai/ha, read-out: Velvetleaf damage rating (100=total damage to plant; 0=no damage to plant)): 10%
pest or weed control at 15.625 g/ha [7, 13]: 0%
pest or weed control at 62.5 g/ha [7, 14]: 30%
pest or weed control at 250 g/ha [7, 15]: 10%
plant injury at 15.625 g/ha (corn (Zea mays) [8]; [13]): 0%
plant injury at 62.5 g/ha (corn (Zea mays) [8]; [14]): 0%
plant injury at 250 g/ha (corn (Zea mays) [8]; [15]): 0%
pest or weed control at 15.625 g/ha [9, 13]: 0%
pest or weed control at 62.5 g/ha [9, 14]: 70%
pest or weed control at 250 g/ha [9, 15]: 90%
pest or weed control at 15.625 g/ha [10, 13]: 0%
pest or weed control at 62.5 g/ha [10, 14]: 10%
pest or weed control at 250 g/ha [10, 15]: 10%
pest or weed control at 15.625 g/ha [11, 13]: 0%
pest or weed control at 62.5 g/ha [11, 14]: 0%
pest or weed control at 250 g/ha [11, 15]: 0%
pest or weed control at 15.625 g/ha [12, 13]: 0%
pest or weed control at 62.5 g/ha [12, 14]: 0%
pest or weed control at 250 g/ha [12, 15]: 10%
